Each block holds one compound with its values, some of them ahead of it.
Experiments:
Type in all cases: biochemical
Renilla luciferase = target: T1, Renilla luciferase (Renilla reniformis, UniProt P27652); assay: Selective quench of Renilla luciferase luminescent reaction (Example I); conditions: for Fold quench of Renilla luciferase: Luciferase Assay Reagent with 1% Tergitol NP-9, 200 μM coelenterazine hh methyl ether, 1 mM berberine hemisulfate or combinations, initial divided by residual luminescence
T1 sequence (P27652 1-311): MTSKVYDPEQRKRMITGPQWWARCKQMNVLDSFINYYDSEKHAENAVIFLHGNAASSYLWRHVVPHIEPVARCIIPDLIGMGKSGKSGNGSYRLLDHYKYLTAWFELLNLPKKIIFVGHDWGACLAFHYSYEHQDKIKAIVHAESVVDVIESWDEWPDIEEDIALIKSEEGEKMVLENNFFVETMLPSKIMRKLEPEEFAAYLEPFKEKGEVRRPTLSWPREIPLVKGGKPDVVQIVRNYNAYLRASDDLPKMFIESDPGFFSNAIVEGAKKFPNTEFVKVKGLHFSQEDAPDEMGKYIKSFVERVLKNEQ
Method: Each buffer was added to a vial of Luciferase Assay Substrate (pt. El 51, Promega Corporation) to make Luciferase Assay Reagent (LAR) plus the quenching agent(s). […] Luminescence was initiated by addition of 20 μl of enzyme solution to 100 μl of Renilla Luciferase Assay Reagent, and measured. […] Fold quench was calculated as the quotient of the initial Renilla luciferase luminescence divided by the residual Renilla luciferase luminescence.

firefly luciferase [1] = target: firefly luciferase (Photinus pyralis, UniProt P08659); assay: Effect of quench reagents on firefly luciferase luminescent reaction (FIGS. 1-3); conditions: luminescence normalized to value without the reagent
Sequence of firefly luciferase (Photinus pyralis, UniProt P08659) (P08659 whole entry): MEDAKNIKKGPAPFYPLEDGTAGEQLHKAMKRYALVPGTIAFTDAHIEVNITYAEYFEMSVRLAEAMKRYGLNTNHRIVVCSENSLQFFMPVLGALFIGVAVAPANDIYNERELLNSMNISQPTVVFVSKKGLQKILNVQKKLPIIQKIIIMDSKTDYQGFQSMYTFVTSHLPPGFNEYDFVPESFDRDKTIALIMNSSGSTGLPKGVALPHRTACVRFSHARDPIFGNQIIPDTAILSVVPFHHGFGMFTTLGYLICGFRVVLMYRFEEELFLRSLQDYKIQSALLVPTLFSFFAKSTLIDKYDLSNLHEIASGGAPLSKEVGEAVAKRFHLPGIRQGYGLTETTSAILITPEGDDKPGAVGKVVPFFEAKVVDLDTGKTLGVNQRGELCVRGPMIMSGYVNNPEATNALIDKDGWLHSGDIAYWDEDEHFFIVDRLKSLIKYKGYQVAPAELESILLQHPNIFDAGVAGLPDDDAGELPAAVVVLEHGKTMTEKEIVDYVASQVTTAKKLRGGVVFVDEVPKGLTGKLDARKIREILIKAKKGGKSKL
Method: To test the effect of coelenterazine hh methyl ether on a firefly luciferase luminescent reaction, a luciferase reagent was prepared (270 μM coenzyme A (Pharmacia), 530 μM ATP (Pharmacia), 20 mM Tricine pH 7.8 (Fisher), 1 mM magnesium carbonate (Sigma), 0.1 mM ETDA (Sigma), 2.7 mM magnesium sulfate (Sigma), and 33 mM dithiothreitol (Sigma)) with varying concentrations of beetle luciferin (Promega), both above and below the concentration required for luciferase saturation (940 μM, 470 μM, 235 μM and 117.5 μM, saturation occurs at about 470 μM). […] Luminescence from firefly luciferase was measured by adding 20 μl of firefly luciferase (5×10^−14 moles/reaction) (Promega Corp.) in 1× Cell Culture Lysis Reagent (Promega Corporation) containing 1 mg/ml bovine serum albumin (BSA) to 100 μl of the luciferase reagents. Luminescence was normalized to the value integrated in the absence of coelenterazine hh methyl ether.
To test the effect of Tergitol® NP-9 on the firefly luciferase luminescent reaction, Luciferase Assay Reagent (Promega Corporation) was prepared according to the manufacturer's instructions. […] Luminescence was integrated after adding 20 μl of firefly luciferase (2.5×10^−14 moles/reaction) in 150 mM HEPES pH 7.4 and 1 mg/ml gelatin, to 100 μl of reagent. Luminescence was normalized to the value integrated for no detergent. […]

[2] = system: horseradish peroxidase (HRP); assay: Quenching light from horseradish peroxidase/luminol chemiluminescent reaction (Example III, FIG. 4)
Method: 20 μl of 0.044 mg/ml horseradish peroxidase (HRP), prepared in KPO4, pH 6.5, was added to 100 μl of 50 mM NaHCO3, 2 μM H2O2+/−100 μM berberine hemisulfate. […] 100 μl of 10 mM Luminol (Sigma) in 55 mM NaOH was then added to initiate the chemiluminescent reaction and the luminescence was measured on a luminometer. Luminescence was captured at various times after reaction initiation.

[3] = system: red click beetle luciferase; assay: Quenching phosphorescence from white luminometer plate, signal/background with red click beetle luciferase (Example IV); conditions: relative to phosphorescence S/B before dye
Method: (§1) Stocks of Amaranth (Aldrich, 120561), Benzopurpurin 4B (Aldrich # 22882), and Fluorescence Brightener 28 (Aldrich 475300) were prepared in DMSO (Sigma) at 100 μM. Luminometer plates (96-well) were purchased from Dynex Technologies. The luminometer plates were broken into pieces that would fit into single luminometer tubes (12 mm diameter) purchased from Promega Corporation. All experiments were performed in a lab under normal fluorescent lighting.
(§2) The experiment measured the signal/background ratio before and after the addition of colored compounds or DMSO. Luminescence measurements were taken from the empty luminescent tube in each experiment to quantitate background. A piece of white luminescent plate, 100 μl of Bright-Glo™ Reagent prepared according to the manufacturer's instructions (Promega Corporation), and 100 μl of Glo Lysis Buffer (Promega Corporation) were placed into the luminescent tube, and the luminescence was again measured. […] 2 μl of DMSO or one of the dyes in DMSO were then added to the tube, the sample was mixed, and the luminescence was measured a third time. This measurement captured the amount of luminescence emitted through the now-colored reagent or the reagent containing the DMSO carrier. Finally, 2 μl of luciferase was added to the tube, the sample was mixed, and the luminescence measured a final time. […]

firefly luciferase [4] = assay: Quenching phosphorescence from white luminometer plate, signal/background with firefly luciferase (Example IV); conditions: relative to phosphorescence S/B before dye
Method: as §1, §2

Compound: OCCN(CCO)c1nc(N2CCCCC2)c2nc(N(CCO)CCO)nc(N3CCCCC3)c2n1 [dipyridamole]
quench of the Renilla luciferase luminescent reaction (Renilla luciferase; at 1 mM): about 35 fold

Compound: COc1c(Cc2ccccc2)nc2c(Cc3ccccc3)nc(-c3ccccc3)cn12 [coelenterazine hh methyl ether, 2,8-dibenzyl-3-methoxy-6-phenyl-imidazo[1,2-a]pyrazine]
effect on firefly luciferase luminescence (firefly luciferase [1]): not affected

Compound: berberine hemisulfate
effect on horseradish peroxidase chemiluminescence (FIG. 4) [2]: quenches | quench of horseradish peroxidase-dependent chemiluminescence ([2]; 100 μM berberine hemisulfate, luminol): over 500 fold | Fold quench of Renilla luciferase (Renilla luciferase): 46 fold | effect on firefly luciferase luminescence (firefly luciferase [1]): not affected

S/B Improvement [3]: 4500%
Compound: Cc1cc(-c2ccc(N=Nc3cc(S(=O)(=O)[O-])c4ccccc4c3N)c(C)c2)ccc1N=Nc1cc(S(=O)(=O)[O-])c2ccccc2c1N.[Na+].[Na+] [Benzopurpurin 4B]

Compound: Tergitol NP-9
Fold quench of Renilla luciferase (Renilla luciferase): 86.67 fold

S/B Improvement (firefly luciferase [4]): 440%
Compound: O=S(=O)([O-])c1cc(Nc2nc(Nc3ccccc3)nc(N(CCO)CCO)n2)ccc1/C=C/c1ccc(Nc2nc(Nc3ccccc3)nc(N(CCO)CCO)n2)cc1S(=O)(=O)[O-].[Na+].[Na+] [Fluorescence Brightener, Fluorescence Brightener 28]
